# Assay results published in patent publication US8895717B2, “Delivery of siRNA by neutral lipid compositions” (The Board of Regents of the University of Texas System, priority 2005, dated 2014).
# Experiments:
# HeyA8 cells [1] = assay: Daily β-agonist treatment of mice bearing HeyA8 ovarian cancer cells; format: in vivo, nude mice; details: 10 mg/kg daily
# Source text: Mice habituated to vivarium conditions for 1 week before the initiation of stress procedures. A restraint-stress procedure was used based on previous studies (Sheridan et al., 1991), substituting a novel Mouse Restraint System (FIG. 15A) for conical centrifuge tubes. In this system, up to 10 mice are placed in individual slots, and each slot can be adjusted to restrain the animal for a desired length of time. In the present study, restraint stress began between 8 a.m. and 10 a.m., and lasted for 2-6 hours for up to 21 days. The ovarian cancer cell lines were harvested from subconfluent cultures by a brief exposure to 0.25% trypsin and 0.02% EDTA, resuspended in Hank's balanced salt solution (HBSS), and tested for >95% viability by trypan blue dye exclusion. The HeyA8 cells were injected i.p. into mice at a concentration of 2.5×10^5 cells while the other cell lines were injected at 1.0×10^6 cells per 0.2 ml HBSS, ten days after starting stress in all groups. Animals were necropsied 21 days after tumor injection, and tumors in the peritoneal cavity were excised, weighed, and documented for location. Immunohistochemistry and H&E staining procedures were carried out on formalin-fixed paraffin-embedded tumors.
# Starting 4 days after tumor cell injection, mice bearing HeyA8 ovarian cancer cells (n=10 per group) were treated daily with either 1) PBS; 2) isoproterenol (non-specific β-agonist) 10 mg/kg; 3) terbutaline (β2-agonist) 5 mg/kg; 4) xamoterol (β1-agonist) 1 mg/kg; or 5) isoproterenol plus 2 mg/kg of the non-specific β-antagonist propranolol.
# HeyA8 tumor samples = assay: Mean vessel density (CD31) in HeyA8 tumor samples; format: in vivo, nude mice; details: daily agonist treatment
# Protocol: Paraffin sections were stained for CD31 (1:800 dilution, Pharmingen, San Jose, Calif.), MMP-2 (1:500 dilution, Chemicon, Temecula, Calif.), MMP-9 (1:200 dilution, Calbiochem, San Diego, Calif.), VEGF (1:500 dilution, Santa Cruz Biotechnology, Santa Cruz, Calif.) and bFGF (1:1,000 dilution, Sigma, St. Louis, Mo.) at 4° C. Samples were stained with a biotinylated goat anti-rabbit antibody for 30 min (prediluted), followed by strepavidin horseradish peroxidase for 30 min (1:300 dilution), and visualized in 3,3′-diaminobenzidine (DAB) for 5-10 min.
# To quantify MVD, 10 random 0.159 mm^2 fields at 100× magnification were examined for each tumor, and the microvessels within those fields were counted. A single microvessel was defined as a discrete cluster of cells stained CD31(+), and the presence of a lumen was required for scoring as a microvessel.
# VEGF mRNA = VEGF mRNA expression, real-time RT-PCR; format: cell-based, human
# Protocol: Total RNA was extracted (Trizol reagent; Invitrogen Co, Carlsbad, Calif.) and reverse transcribed using an oligo(dT) primer and M-MLV reverse transcriptase (Life Technologies, Inc., Rockville, Md.) in a final reaction volume of 20 μl (60 min at 42° C.). PCR amplifications are performed using the ABI Prism 7700 Sequence Detection System with TaqMan One-Step RT-PCR Master Mix Reagent kit (PE Applied Biosystems, Foster City, Calif.). Quantitative values are obtained from the Ct value, at which the increase in fluorescent signal associated with exponential growth of PCR products starts to be detected by the laser detector of the Sequence Detection System, using the analysis software according to the manufacturer's instructions (each sample is normalized on the basis of its I8S content). The VEGF primers were obtained from Applied Biosystems (Item number HS00173626-ml). βAR expression was examined with semi-quantitative RT-PCR using the following primers: βAR (forward, 5′-[…]-3′ (SEQ ID NO:13), reverse, 5′-[…]-3′) (SEQ ID NO:14); β2AR (forward, 5′-[…]-3′ (SEQ ID NO:15), reverse, 5′-[…]-3′) (SEQ ID NO:16).
# A2780 and RMG-II cells = assay: Intracellular cAMP in βAR negative cell lines; format: cell-based, human
# SKOV3 cells [2] = assay: Cytotoxicity assay (MTT), SKOV3; format: cell-based, human; details: Homo sapiens, SK-OV-3; SKOV3, 96 hours
# Protocol: (§1) The medium was exchanged after 48 hours with increasing concentrations of docetaxel (obtained from Aventis Pharma, Bridgewater, N.J.) dissolved in ethanol (final concentration range, 0.1-10,000 nmol/L prepared in medium) or cisplatin (purchased from LKT Laboratories, Inc., St. Paul, Minn.) dissolved in water. After a 96-hour incubation, 50 μL of 0.15% 3-(4,5-dimethylthiazol-2-yl)-2,5-diphenyltetrazolium bromide was added to each well and incubated for 2 hours. The supernatant was removed, and cells were dissolved in 100 μL DMSO. The absorbance at 570 nm was recorded using a FALCON microplate reader (Becton Dickinson Labware, Bedford, Mass.), and cell survival expressed as a percent increase or decrease above control conditions, after subtracting blank A570 readings. The IC50 concentration was determined by finding the A570 reading midpoint between maximal and minimal readings and finding the chemotherapy concentration that intersects the growth curve at that A570 reading.
# HeyA8 cells [3] = assay: Cytotoxicity assay (MTT), HeyA8; format: cell-based, human; details: Homo sapiens, HEY A8; HeyA8, 96 hours
# Protocol: as §1
# SKOV3-TR cells = assay: Cytotoxicity assay (MTT), SKOV3-TR; format: cell-based, human
# Protocol: as §1
# HeyA8-MDR cells = assay: Cytotoxicity assay (MTT), HeyA8-MDR; format: cell-based, human
# Protocol: as §1
# caspase-3 = assay: Caspase-3 activity in ovarian cancer cells (DEVD-AFC); format: cell-based, human; details: for increase in caspase-3 activity: 24 hours
# Protocol: Ovarian cancer cells (1×10^6) in culture (six-well plates) were treated with or without docetaxel at the cell line specific IC50 or IC90 concentration for 24 hours. After washing with PBS, cells were lysed in 50 μL of cell lysis buffer provided. Caspase-3, caspase-8, and caspase-9 activities were measured with the appropriate apoptosis detection kit (BD Biosciences/Clontech, Palo Alto, Calif.), using substrate DEVD-AFC for caspase-3, IETD-AFC for caspase-8, and LEHD-AMC for caspase-9.
# FAK = FAK cleavage in response to docetaxel, Western blot; format: cell-based, human
# Protocol: Cells were lysed in modified RIPA buffer (50 mM Tris, 150 mM NaCl, 1% triton, 0.5% deoxycholate plus 25 µg/ml leupeptin, 10 µg/ml aprotinin, 2 mM EDTA, and 1 mM sodium orthovanadate (Sigma Chemical Co, St. Louis, Mo.) as previously described (Sood et al., 2004; Sood et al., 2002). A sample was removed from culture dishes by cell scraping and centrifuged at 12,500 rpm for 30 min. The […] protein concentration of the supernatant was determined using a bicinchoninic acid protein assay reagent kit (Pierce, Rockford, Ill.), and whole cell lysates were analyzed by 7.5% SDS-PAGE. Samples were then transferred to nitrocellulose membrane by semi-dry transfer (BioRad Laboratories, Hercules, Calif.). Membranes were blocked with 5% nonfat milk, and incubated with 0.25 μg/mL anti-FAK antibody (Biosource, International Camarillo, Calif.) for 1 h at room temperature. Antibody was detected with 0.167 μg/mL HRP-conjugated anti-mouse secondary antibody (The Jackson Laboratory, Bar Harbor, Me.) and developed with an enhanced chemiluminescence detection kit (Pierce). Equal loading was confirmed by detection of β-actin (0.1 μg/ml, anti-β-actin antibody, Sigma Chemical). Densitometric analysis was performed using the Scion Imaging software (Scion Corporation, Frederick, Md.).
# It has been reported that FAK may be cleaved by caspase-3 (Gervais et al., 1998; Sasaki et al., 2002; Carragher et al., 2001). Based on observations regarding modulation of caspase levels by docetaxel in ovarian cancer cells, FAK cleavage after treatment with docetaxel was examined and whether there are differences in extent of FAK cleavage between the taxane-sensitive and taxane-resistant cell lines. In SKOV3 cells, FAK was cleaved after 48 and 72 hours of exposure to docetaxel (FIG. 7A). The 71-kDa fragments increased after treatment with docetaxel, whereas the 125-kDa fragments decreased. […] To study the dependence of FAK cleavage on caspase-3, the effect of DEVDfmk (caspase-3 inhibitor) was examined.
# SKOV3 cells [4] = assay: TUNEL apoptosis assay, SKOV3; format: cell-based, human
# Protocol: (§2) Terminal deoxynucleotidyl transferase-mediated nick end labeling-positive cells were detected using Dead End Fluorometric terminal deoxynucleotidyl transferase-mediated nick end labeling system (APO-DIRECT, BD Biosciences/PharMingen, San Diego, Calif.) according to the manufacturer's instructions. […] Cells were fixed with 4% paraformaldehyde solution for 25 minutes on ice. Intracellular DNA fragments were then labeled by exposing cells to fluorescein-12-dUTP, treated with propidium iodide and RNaseA solution, and analyzed by flow cytometry (EPICS XL, Beckman Coulter, Miami, Fla.). The percentages of apoptotic cells were averaged over three consecutive experiments.
# HeyA8 cells [5] = assay: TUNEL apoptosis assay, HeyA8; format: cell-based, human
# Protocol: as §2
# [6] = system: SKOV3-TR and HeyA8-MDR cells; assay: TUNEL apoptosis assay, taxane-resistant cells; format: cell-based, human
# Protocol: Terminal deoxynucleotidyl transferase-mediated nick end labeling-positive cells were detected using Dead End Fluorometric terminal deoxynucleotidyl transferase-mediated nick end labeling system (APO-DIRECT, BD Biosciences/PharMingen, San Diego, Calif.) according to the manufacturer's instructions. Briefly, ovarian cancer cells in culture were treated with varying concentrations of docetaxel and harvested after 12, 24, 48, or 96 hours. Cells were fixed with 4% paraformaldehyde solution for 25 minutes on ice. Intracellular DNA fragments were then labeled by exposing cells to fluorescein-12-dUTP, treated with propidium iodide and RNaseA solution, and analyzed by flow cytometry (EPICS XL, Beckman Coulter, Miami, Fla.). The percentages of apoptotic cells were averaged over three consecutive experiments.
structure (smiles),measurement,setting,value
CC(C)NCC(O)c1ccc(O)c(O)c1 (centres unmarked) [isoproterenol],increase in average tumor weight compared to control,HeyA8 cells [1],266%
same,increase in mean number of tumor nodules compared to control,HeyA8 cells [1],341%
same,MVD counts,HeyA8 tumor samples,significantly higher MVD counts compared to controls
same,effect on VEGF mRNA,"VEGF mRNA; SKOV3ip1, forskolin 1 μM, db-cAMP 1 mM",mimicked
same,intracellular cAMP levels after stimulation,A2780 and RMG-II cells,neither of the βAR negative cell lines showed an increase in intracellular cAMP levels
NC[C@H](O)c1ccc(O)c(O)c1 [norepinephrine],increase in VEGF mRNA expression,"VEGF mRNA; SKOV3ip1, peak 1.5 hours following treatment",8.4 fold
same,VEGF expression,VEGF mRNA; βAR-negative A2780 cells,no increase in VEGF expression
same,intracellular cAMP levels after stimulation,A2780 and RMG-II cells,neither of the βAR negative cell lines showed an increase in intracellular cAMP levels
CC(=O)O[C@@]12CO[C@@H]1C[C@H](O)[C@@]1(C)C(=O)[C@H](O)C3=C(C)[C@@H](OC(=O)[C@H](O)[C@@H](NC(=O)OC(C)(C)C)c4ccccc4)C[C@@](O)([C@@H](OC(=O)c4ccccc4)[C@H]21)C3(C)C [docetaxel],IC50,SKOV3 cells [2],6.2 nM
same,IC50,HeyA8 cells [3],1 nM
same,IC50,"SKOV3-TR cells; Homo sapiens, SKOV3TR, SKOV3-TR, 96 hours",225 nM
same,fold more resistant to docetaxel,SKOV3-TR cells; SKOV3-TR versus SKOV3,36 fold
same,fold more resistant to docetaxel,HeyA8-MDR cells; HeyA8-MDR versus HeyA8,300 fold
same,IC50,"HeyA8-MDR cells; Homo sapiens, HeyA8-MDR, 96 hours",450 nM
same,increase in caspase-3 activity,"caspase-3; HeyA8, IC50 level of docetaxel",1.8 fold
same,increase in caspase-3 activity,"caspase-3; HeyA8, IC90 level of docetaxel",2.5 fold
same,increase in caspase-3 activity,"caspase-3; SKOV3, IC50 level of docetaxel",2.8 fold
same,increase in caspase-3 activity,"caspase-3; SKOV3, IC90 level of docetaxel",5.4 fold
same,induction of caspase activity,"caspase-3; resistant SKOV3-TR and HeyA8-MDR, IC50 and IC90 levels for sensitive lines, caspase-3, -8, -9",not able to induce caspase activity
same,FAK cleavage,"FAK; SKOV3, 48 and 72 hours",cleaved
same,FAK cleavage,FAK; SKOV3-TR and HeyA8-MDR,did not show any increase in FAK cleavage products
same,apoptosis,"SKOV3 cells [4]; SKOV3, IC20 level of docetaxel, FAK siRNA 48 hours before",about 41%
same,proportion of apoptotic cells,"SKOV3 cells [4]; SKOV3, docetaxel 72 hours without or with DEVD-fmk",72%
same,proportion of apoptotic cells,"SKOV3 cells [4]; SKOV3, docetaxel 96 hours",84%
same,apoptosis,"HeyA8 cells [5]; HeyA8, IC20 level of docetaxel, FAK siRNA 48 hours before",~42%
same,proportion of apoptotic cells,"HeyA8 cells [5]; HeyA8, docetaxel 72 hours without or with DEVD-fmk",56%
same,proportion of apoptotic cells,"HeyA8 cells [5]; HeyA8, docetaxel 96 hours",66%
same,apoptosis,[6]; FAK siRNA with or without docetaxel,neither agent alone induced much apoptosis
same,level of apoptosis,[6]; docetaxel with or without DEVD-fmk,remained low
